Laboratory results reported in article PMC2661360 (PLoS ONE, 2009).
“Also recorded” adds a separate entry of the source. Square brackets hold non-standard residues; d marks the D form. Peptide text beside a SMILES is read from it. * marks the point of attachment. Sta = CC(C)C[C@H](N)[C@@H](O)CC(=O)O; Isovaleryl = CC(C)CC(=O)*

Tests used:
C. albicans cells = assay: Inhibition of C. albicans degradation of Hst-5 by protease inhibitors; format: cell-based, Candida albicans; settings: 1 mM inhibitor in the degradation assay; SDS-PAGE (Figure 3B)
Sap9 [1] = target: T1, Sap9 (Candida albicans, UniProt Q59SU1); assay: Inhibition of Sap9 degradation of Hst-5; format: biochemical; parameters: made in house; host or cells: Pichia pastoris GS115 (plasmid pKJ113); settings: purified Sap9 protease; SDS-PAGE (Figure 3D)
Excerpt: (§1) Following, samples were processed as described above.

Sap10 = Sap10 (Candida albicans, UniProt Q5A651); assay: Inhibition of Sap10 degradation of Hst-5; format: biochemical; parameters: made in house; host or cells: Pichia pastoris GS115 (plasmid pKJ113); settings: purified Sap10 protease; SDS-PAGE (Figure 3D)
Excerpt: as §1

C. albicans whole cells = assay: Degradation assay of Hst-5 with C. albicans whole cells; parameters: species or system Candida albicans
Description: (§2) The C. albicans SC5314 strain, the C. albicans SAP null mutants sap1–3 triple mutant (lacking SAP1–3), sap4–6 triple mutant (lacking SAP4–6), sap9 single mutant (lacking SAP9), sap10 single mutant (lacking SAP10) and sap9,10 double mutant (lacking both SAP9 and SAP10), as well as the parent strain CAI4 (URA-) were used in these experiments, [43], [44]. Strains were grown in YPD broth (Difco Laboratories, Detroit, MI) overnight at 30°C with shaking and cells were equilibrated in fresh media to an optical density of 1.0 at OD600. High purity Hst-5, proteinase K, PMSF and pepstatin A were purchased from Sigma (Sigma-Aldrich Chemical, St. Louis, MO). Histatin-5 was reconstituted in 1 mM phosphate-buffered saline (PBS) and used at a final concentration of 150 µg/ml (within the range of physiological salivary concentration) in all experiments unless otherwise stated. All experiments were performed on at least three separate occasions.
The intensity of the bands on the Coomassie-stained gels was assessed by densitometric analysis using a MultiImager scanner (Bio-Rad Laboratories, Hercules California) and images analyzed with the PDQuest version 7.0 (BioRAd).

[2] = tested on: cell-free supernatants of C. albicans cell suspensions; assay: Degradation assay of Hst-5 with cell-free supernatants; parameters: species or system Candida albicans; settings: C. albicans supernatant compared to whole C. albicans cells; SDS-PAGE (Figure 3C)
Description: Degradation assays were performed by incubating Hst-5 with 100 µl of standardized cell concentrations of the C. albicans strains in PBS for 2 h at 37°C. Unless otherwise stated, C. albicans strains were used in experiments at a cell concentration of 2×10^8 cells/ml (generating two visible bands). Protease K was used as a positive control and negative controls with peptide and no C. albicans were included. Following incubation, samples were collected, heated at 100°C to remove proteolytic activity and analyzed by sodium dodecyl sulfate polyacrylamide gel electrophoresis (SDS-PAGE). Experiments were also performed using increasing C. albicans cell densities and at different time points where samples were collected following 20, 60 and 120 minutes incubation. In addition, assays were performed using cell-free supernatants from C. albicans cell suspensions to determine whether the proteolytic substance is secreted.

Sap9 [3] = target: T1, Sap9; settings: MALDI-TOF/TOF MS peptide mapping
Excerpt: The recombinant proteases Sap9 and Sap10 were produced in Pichia pastoris as described previously, [45]. Briefly, P. pastoris strain GS115 was transformed with the expression plasmid pKJ113 carrying truncated SAP9 and SAP10 versions lacking signal peptide- and GPI anchor consensus- encoding sequences. Proteases were recovered from culture supernatants and purified via anion exchange chromatography. Activity of proteases was verified by using a standard fluorescence casein based assay (Molecular Probes). Purified proteases (0.05, 0.1, 0.25 and 0.5 µg) were incubated with Hst-5 for 2 h. Following, samples were processed as described above.
Supernatants from the various degradation reactions were subjected to peptide mapping in order to determine the sequences of cleaved fragments, identify cleavage sites on the Hst-5 as well as other cleavage products that may not be visible by electrophoresis. […] Peptide samples were mixed with saturated α-cyano-4-hydroxycinnamic acid in acetonitrile∶trifluoroacetic acid 0.1% (1∶2 v/v) then measured on an Ultraflex MALDI-ToF/ToF device using flexControl 3.0 for data collection and flexAnalysis 3.0 for spectra analysis and peaklist generation (Bruker Daltonics GmbH, Germany). […]

[4] = tested on: C. albicans SAP null mutants; parameters: species or system Candida albicans; settings: sap10 single mutant compared to parent strain CAI4 and SC5314 (Figure 4)
Description: as §2

Saccharomyces cerevisiae = assay: Degradation of Hst-5 by Saccharomyces cerevisiae; settings: compared to C. albicans (Figure S2)
Sap5 [5] = target: Sap5 (Candida albicans, UniProt P43094); settings: data not shown
Sap5 [6] = assay: Sap5 protease; settings: C. albicans, up to 2 h
Sap9 [7] = assay: purified recombinant Sap9 protease; settings: C. albicans, up to 2 h
[8] = C. albicans cells in PBS with pepstatin A; settings: 37°C, up to 2 h
[9] = C. albicans whole cells (2×10^8 cells/ml) in PBS; settings: Candida albicans, 37°C, up to 2 h
[10] = C. albicans whole cells (SC5314) in PBS, 2×10^8 cells/ml; settings: 37°C, up to 2 h
proteinase K = proteinase K (Parengyodontium album, UniProt P06873); assay: Inhibition of proteinase K degradation of Hst-5 by protease inhibitors; format: biochemical; parameters: purchased Sigma (Sigma-Aldrich Chemical, St. Louis, MO); settings: 1 mM inhibitor; SDS-PAGE (Figure 3A)
Sequence of proteinase K (P06873 106-384): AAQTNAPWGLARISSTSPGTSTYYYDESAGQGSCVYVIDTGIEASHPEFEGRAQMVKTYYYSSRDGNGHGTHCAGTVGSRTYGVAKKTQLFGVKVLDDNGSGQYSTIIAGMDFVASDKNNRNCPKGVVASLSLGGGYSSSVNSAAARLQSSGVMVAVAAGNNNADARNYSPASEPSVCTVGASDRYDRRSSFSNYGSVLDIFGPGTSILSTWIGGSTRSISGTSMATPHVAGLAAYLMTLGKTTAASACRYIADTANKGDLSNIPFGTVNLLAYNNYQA

T1 sequence (Q59SU1 18-520): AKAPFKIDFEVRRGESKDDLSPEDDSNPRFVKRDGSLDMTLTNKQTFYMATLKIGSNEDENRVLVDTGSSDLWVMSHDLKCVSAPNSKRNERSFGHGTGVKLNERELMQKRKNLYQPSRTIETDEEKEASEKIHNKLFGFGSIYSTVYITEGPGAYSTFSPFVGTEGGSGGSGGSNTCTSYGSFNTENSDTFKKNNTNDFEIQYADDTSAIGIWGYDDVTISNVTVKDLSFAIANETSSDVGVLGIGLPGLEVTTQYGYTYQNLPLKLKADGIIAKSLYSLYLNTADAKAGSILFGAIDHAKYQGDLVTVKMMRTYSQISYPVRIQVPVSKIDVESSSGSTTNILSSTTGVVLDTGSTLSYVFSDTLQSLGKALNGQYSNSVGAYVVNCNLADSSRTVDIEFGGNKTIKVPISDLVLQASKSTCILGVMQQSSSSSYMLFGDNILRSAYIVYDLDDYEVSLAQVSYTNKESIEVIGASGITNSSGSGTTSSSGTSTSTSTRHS
Sequence of Sap10 (Q5A651 21-429): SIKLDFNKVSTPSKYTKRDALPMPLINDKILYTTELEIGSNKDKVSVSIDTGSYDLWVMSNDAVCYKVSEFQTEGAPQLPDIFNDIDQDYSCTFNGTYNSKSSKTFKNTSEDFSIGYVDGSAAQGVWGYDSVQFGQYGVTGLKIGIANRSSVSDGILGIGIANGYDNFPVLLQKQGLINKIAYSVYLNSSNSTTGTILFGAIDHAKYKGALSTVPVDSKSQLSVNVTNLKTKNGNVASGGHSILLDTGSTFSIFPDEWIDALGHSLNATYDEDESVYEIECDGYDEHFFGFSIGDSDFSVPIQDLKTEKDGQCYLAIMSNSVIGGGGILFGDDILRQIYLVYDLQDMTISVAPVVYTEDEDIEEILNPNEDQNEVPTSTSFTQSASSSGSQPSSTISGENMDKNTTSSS
Sequence of Sap5 (Candida albicans, UniProt P43094) (P43094 77-418): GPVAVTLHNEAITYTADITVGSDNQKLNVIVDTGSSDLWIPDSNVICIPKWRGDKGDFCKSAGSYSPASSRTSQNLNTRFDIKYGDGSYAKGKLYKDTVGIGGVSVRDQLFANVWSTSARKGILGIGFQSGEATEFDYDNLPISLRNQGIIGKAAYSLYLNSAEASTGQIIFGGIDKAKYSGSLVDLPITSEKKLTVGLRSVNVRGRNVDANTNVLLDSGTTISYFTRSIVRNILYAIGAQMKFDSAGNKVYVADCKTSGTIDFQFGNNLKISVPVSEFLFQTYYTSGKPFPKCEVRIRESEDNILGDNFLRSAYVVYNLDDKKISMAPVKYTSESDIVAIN

## CC(C)CC(=O)N[C@H](C(=O)N[C@H](C(=O)N[C@@H](CC(C)C)[C@@H](O)CC(=O)N[C@@H](C)C(=O)N[C@@H](CC(C)C)[C@@H](O)CC(=O)O)C(C)C)C(C)C [pepstatin A] (Isovaleryl-VV[Sta]A[Sta]-OH)
C. albicans cells
  inhibition of C. albicans degradation of Hst-5: inhibition of C. albicans degradation; also recorded: resulted in inhibition of degradation; also recorded: salvaged Hst-5 from degradation
Sap9 [1]
  inhibition of Sap9 degradation of Hst-5: inhibition of degradation; also recorded: inhibited
Sap10
  inhibition of Sap10 degradation of Hst-5: inhibition of degradation; also recorded: inhibited

## C[C@H](NC(=O)[C@H](Cc1cnc[nH]1)NC(=O)[C@H](CO)NC(=O)[C@@H](N)CC(=O)O)C(=O)N[C@@H](CCCCN)C(=O)N[C@@H](CCCNC(=N)N)C(=O)N[C@@H](Cc1cnc[nH]1)C(=O)N[C@@H](Cc1cnc[nH]1)C(=O)NCC(=O)N[C@@H](Cc1ccc(O)cc1)C(=O)N[C@@H](CCCCN)C(=O)N[C@@H](CCCNC(=N)N)C(=O)N[C@@H](CCCCN)C(=O)N[C@@H](Cc1ccccc1)C(=O)N[C@@H](Cc1cnc[nH]1)C(=O)N[C@@H](CCC(=O)O)C(=O)N[C@@H](CCCCN)C(=O)N[C@@H](Cc1cnc[nH]1)C(=O)N[C@@H](Cc1cnc[nH]1)C(=O)N[C@@H](CO)C(=O)N[C@@H](Cc1cnc[nH]1)C(=O)N[C@@H](CCCNC(=N)N)C(=O)NCC(=O)N[C@@H](Cc1ccc(O)cc1)C(=O)O [Hst-5, Histatin-5]
C. albicans whole cells; 1×10^2 cells/ml and below, physiological concentrations of Hst-5
  degradation of Hst-5 by C. albicans: unable to degrade
C. albicans whole cells; 1×10^6 cells/ml, 2 h 37°C, SDS-PAGE
  degradation of Hst-5 by C. albicans: no degradation
C. albicans whole cells; 2×10^9 cells/ml, 2 h 37°C, SDS-PAGE
  degradation of Hst-5 by C. albicans: significant degradation
C. albicans whole cells; 20 mins incubation at 37°C, SDS-PAGE, lower weight product
  degradation of Hst-5 by C. albicans over time: Minor degradation
C. albicans whole cells; 1 h and 2 h incubation at 37°C, SDS-PAGE
  degradation of Hst-5 by C. albicans over time: significantly increasing level of degradation
C. albicans whole cells; C. albicans cells, 37°C, PBS, SDS-PAGE (Figure 2A)
  time in which C. albicans degrades Hst-5: ≤ 20 min
C. albicans whole cells; Hst-5 150 µg/ml in PBS with 100 µl C. albicans cells (2×10^8 cells/ml unless stated), 2 h 37°C, SDS-PAGE, densitometry, at least three occasions
  degradation of Hst-5 by C. albicans cells: efficiently and rapidly degrade
C. albicans whole cells; Hst-5 50–200 µg/ml, data not shown
  level of degradation versus Hst-5 concentration: inversely proportional to Hst-5 concentration
[2]
  degradation of Hst-5 by cell-free supernatants: significantly less degradation; also recorded: Minimal degradation
Sap9 [3]
  cleavage site of Sap9 on Hst-5: Lys13
[4]
  degradation of Hst-5 by sap10 mutant: some degree of inhibition
Candida glabrata
  degradation of Hst-5 by C. glabrata: significant enhanced degradation
Saccharomyces cerevisiae
  degradation of Hst-5 by S. cerevisiae: significant enhanced degradation
Sap5 [5]
  degradation of Hst-5 by Sap5 purified protease: did not degrade

## DSHAKRHHGYKRKFHEKHHSHRGY
Sap5 [6]
  not cleaved: did not degrade Hst-5
Sap9 [7]
  cleaved bond: R12-Lys13
[8]
  not cleaved: salvaged Hst-5 from degradation
[9]
  cleaved bond: K17-H18
[10]
  cleaved bond: R12-Lys13; also recorded: K17-H18

## O=S(=O)(F)Cc1ccccc1 [PMSF]
C. albicans cells
  inhibition of C. albicans degradation of Hst-5: not and failed to inhibit
Proteinase K
  inhibition of proteinase K degradation of Hst-5: inhibition of degradation; also recorded: inhibited
